In patent publication EP0032748B1, “Thiophene derivatives” (UBE INDUSTRIES, LTD., priority 1980, dated 1981):
Where two headings read alike, the source gives them in different places.

Tests used:
[1] = test system: pear alternaria leaf spot fungus (Alternaria kikuchiana); type: in vivo; conditions: pear black spot; concentration of spray liquid 500 ppm; three days after the inoculation
[2] = test system: pear (variety: Niju-seiki); conditions: concentration of spray liquid 500 ppm
Phytophthora infestans = type: in vivo
[3] = test system: tomato (variety: Sekai-ichi)
[4] = test system: rice seeds (variety: Asominori); assay: Test Example 10: degree of phytotoxicity on rice after seed treatment (injury rating); conditions: concentration 1000 ppm
[5] = test system: rice brown spot fungus (Cochliobolus miyabeanus); assay: Test Example 2: control effect on paddy rice brown spot (spray on potted seedlings); conditions: Table 3, spray liquid 500 ppm, inoculation one day after spraying, lesions per leaf 5 days after inoculation
rice seeds = assay: Test Example 9: degree of phytotoxicity on rice after seed treatment (injury rating); conditions: concentration 1000 ppm
[6] = test system: haricot sclerotinia rot (Sclerotinia sclerotiorum); assay: Test Example 5: control effect on haricot sclerotinia rot (spray, detached leaflets); conditions: Table 6, spray liquid 200 ppm, lesion diameter 3 days after inoculation
Description: On the following day, the first trifoliate leaf was cut off and the each leaflet of trifoliate leaf were placed in a 15 cm petri dish kept under moist conditions by placing a wet filter paper thereon and were inoculated on the center portion of each leaflet with a fungus-containing agar segment obtained by perforating by means of a cork borer of 8 mm in diameter an edge of a colony of a haricot sclerotinia rot (Sclerotinia sclerotiorum) cultured previously at 20°C. for 2 days in PSA medium. Three days after inoculation, the lesion diameter formed was measured by means of slide calipers and the control value (%) was obtained according to the following equation.

[7] = test system: hariot (variety: Taisho Kintoki)
Gibberella fujikuroi = assay: Test Example 9: seed treatment against "Bakanae" disease of rice (seed disinfection ratio); conditions: concentration 1000 ppm, seed immersion at 15°C. for 24 hours, 32 days after the seeding
rice brown spot fungus = assay: Test Example 10: seed treatment against brown spot of rice (seed disinfection ratio); conditions: concentration 1000 ppm, seed immersion, 25 days after the seeding
[8] = test system: paddy rice (variety: Asahi)
[9] = test system: cucumber (variety: Sagami Hanjiro)
[10] = test system: cucumber downy mildew fungus (Pseudoperonospora cubensis); type: in vivo; conditions: for Control value: Table 7, spray liquid 500 ppm, percent lesion area 5 days after inoculation
Pellicularia sasakii = type: in vivo; conditions: Table 4, spray liquid 500 ppm, paddy rice sheath blight
paddy rice = conditions: Table 4, spray liquid 500 ppm
[11] = Table 6, spray liquid 200 ppm, haricot
[12] = Table 3, spray liquid 500 ppm, paddy rice

Q: For `O=C1C2CC=CCC2C(=O)N1SC(Cl)(Cl)Cl` (stereo not shown) [Captan, reference compound], which “Control value (%)” value [1] is on record?
A: Its value is 90%.

Q: And the Degree of phytotoxicity [2]?
A: Its Degree of phytotoxicity is 0.

Q: With `CCCOC(=O)c1sc(C(=O)OCCC)c(OC(C)=O)c1OC(C)=O` [Compound No. 3, 3,4-Diacetoxy-2,5-di-n-propoxycarbonylthiopene] as the compound, how does the Control value (Phytophthora infestans; in vivo) read?
A: Its Control value is 93%.

Q: And the Degree of phytotoxicity ([3]; in vivo)?
A: The Degree of phytotoxicity was 0.

Q: And the Degree of phytotoxicity [4]?
A: Its Degree of phytotoxicity is 0.

Q: And the Control value [5]?
A: The Control value was 100%.

Q: And the Degree of phytotoxicity (rice seeds)?
A: Its Degree of phytotoxicity is 0.

Q: What about the Control value [6] of the same compound?
A: Its Control value is 100%.

Q: What about the Degree of phytotoxicity ([7]; in vivo) of the same compound?
A: Its Degree of phytotoxicity is 0.

Q: And the “Seed disinfection ratio (%)” value (Gibberella fujikuroi)?
A: Its value is 100%.

Q: What about the “Seed disinfection ratio (%)” value (rice brown spot fungus) of the same compound?
A: Its value is 100%.

Q: What about the Degree of phytotoxicity ([8]; in vivo) of the same compound?
A: Its Degree of phytotoxicity is 0.

Q: How did the Degree of phytotoxicity ([9]; Table 7, spray liquid 500 ppm) turn out when `CCOC(=O)c1sc(C(=O)OCC)c(OC(=O)OC)c1OC(=O)OC` [Compound No. 22, 3,4-Dimethoxycarbonyloxy-2,5-dicarbethoxythiophene] was run?
A: Its Degree of phytotoxicity is 0.

Q: And the Control value (Phytophthora infestans; Table 5, spray liquid 500 ppm, tomato late blight, inoculation 3 days after spraying, observed 3 days after inoculation)?
A: Its Control value is 100%.

Q: What about the Degree of phytotoxicity ([3]; Table 5, spray liquid 500 ppm, tomato) of the same compound?
A: The Degree of phytotoxicity was 0.

Q: And the Degree of phytotoxicity [4]?
A: The Degree of phytotoxicity was 0.

Q: And the Control value [5]?
A: Its Control value is 100%.

Q: And the Degree of phytotoxicity (rice seeds)?
A: The Degree of phytotoxicity was 0.

Q: And the Control value [10]?
A: The Control value was 100%.

Q: What about the Control value [6] of the same compound?
A: The Control value was 95%.

Q: And the Degree of phytotoxicity [7, 11]?
A: The Degree of phytotoxicity was 0.

Q: What about the “Seed disinfection ratio (%)” value (Gibberella fujikuroi) of the same compound?
A: The value was 97%.

Q: What about the “Seed disinfection ratio (%)” value (rice brown spot fungus) of the same compound?
A: Its value is 100%.

Q: What about the Degree of phytotoxicity [8, 12] of the same compound?
A: Its Degree of phytotoxicity is 0.

Q: `CCOC(=O)c1sc(C(=O)OCC)c(OC(=O)NC)c1OC(=O)NC` [Compound No. 50, 3,4-Bis(N-methylcarbamoyloxy)-2,5-dicarbethoxy-thiophene] was tested. Which Degree of phytotoxicity ([9]; Table 7, spray liquid 500 ppm) did it give?
A: Its Degree of phytotoxicity is 0.

Q: What about the Degree of phytotoxicity [4] of the same compound?
A: Its Degree of phytotoxicity is 0.

Q: What about the Control value [5] of the same compound?
A: Its Control value is 100%.

Q: What about the Degree of phytotoxicity (rice seeds) of the same compound?
A: Its Degree of phytotoxicity is 0.

Q: And the Control value [10]?
A: The Control value was 100%.

Q: What about the “Seed disinfection ratio (%)” value (Gibberella fujikuroi) of the same compound?
A: The value was 100%.

Q: What about the “Seed disinfection ratio (%)” value (rice brown spot fungus) of the same compound?
A: The value was 100%.

Q: And the Degree of phytotoxicity [8, 12]?
A: The Degree of phytotoxicity was 0.

Q: How did the Control value (Phytophthora infestans; in vivo) turn out when `CCOCCOC(=O)c1sc(C(=O)OCCOCC)c(O)c1O` [Compound No. 159, 3,4-Dihydroxy-2,5-di-2'-ethoxyethoxycarbonyl-thiophene] was run?
A: The Control value was 99%.

Q: What about the Degree of phytotoxicity ([3]; in vivo) of the same compound?
A: Its Degree of phytotoxicity is 0.

Q: And the Control value [5]?
A: The Control value was 96%.

Q: And the Degree of phytotoxicity ([8]; in vivo)?
A: The Degree of phytotoxicity was 0.

Q: For `CCOCCOC(=O)c1sc(C(=O)OCCOCC)c(OC(=O)NC)c1OC(=O)NC` [Compound No. 161, 3,4-Di-methylcarbamoyloxy-2,5-di-2'-ethoxyethoxycarbonylthiophene], which Control value [5] is on record?
A: The Control value was 100%.

Q: And the Degree of phytotoxicity ([8]; in vivo)?
A: The Degree of phytotoxicity was 0.

Q: With `COCCOC(=O)c1sc(C(=O)OCCOC)c(OC(=O)COC)c1OC(=O)COC` [Compound No. 170, 3,4-Di-methoxymethylcarbonyloxy-2,5-di-2'-methoxyethoxycarbonylthiophene] as the compound, how does the Degree of phytotoxicity ([9]; Table 7, spray liquid 500 ppm) read?
A: The Degree of phytotoxicity was 0.

Q: And the Control value [10]?
A: The Control value was 93%.

Q: What does the source list for `COC(=O)Oc1c(C(=O)OCc2ccccc2)sc(C(=O)OCc2ccccc2)c1OC(=O)OC` [Compound No. 179, 3,4-Di-methoxycarbonyloxy-2,5-dibenzyloxycarbonylthiophene]?
A: Degree of phytotoxicity ([9]; Table 7, spray liquid 500 ppm): 0; Control value [10]: 100%

Q: Which Degree of phytotoxicity ([9]; Table 7, spray liquid 500 ppm) does the source give for `CCNC(=O)Oc1c(C#N)sc(C(=O)OC)c1OC(=O)NCC` [Compound No. 208, 3,4-Di(N-ethylcarbamoyloxy)-2-cyano-5-methoxycarbonylthiophene] here?
A: The Degree of phytotoxicity was 0.

Q: What about the Degree of phytotoxicity [4] of the same compound?
A: The Degree of phytotoxicity was 0.

Q: And the “Control value (%)” value [1]?
A: The value was 78%.

Q: And the Control value [10]?
A: The Control value was 100%.

Q: And the “Seed disinfection ratio (%)” value (rice brown spot fungus)?
A: Its value is 97%.

Q: What about the Degree of phytotoxicity [2] of the same compound?
A: The Degree of phytotoxicity was 0.

Q: Which “Control value (%)” value [1] does the source give for `CCOC(=O)c1sc(C#N)c(O)c1O` [Compound No. 210, 3,4-Dihydroxy-2-cyano-5-carbethoxythiophene] here?
A: The value was 100%.

Q: And the Degree of phytotoxicity [2]?
A: The Degree of phytotoxicity was 0.

Q: With `CCOC(=O)c1sc(C#N)c(OC(C)=O)c1OC(C)=O` [Compound No. 212, 3,4-Di-acetoxy-2-cyano-5-carbethoxythiophene] as the compound, how does the “Control value (%)” value [1] read?
A: Its value is 100%.

Q: What about the Degree of phytotoxicity [2] of the same compound?
A: The Degree of phytotoxicity was 0.

Q: What does the source list for `CCOC(=O)Oc1c(C#N)sc(C(=O)OCC)c1OC(=O)OCC` [Compound No. 216, 3,4-Di-(ethoxycarbonyloxy)-2-cyano-5-carbethoxythiophene]?
A: Degree of phytotoxicity [4]: 0; Control value [6]: 75%; Degree of phytotoxicity [7, 11]: 0; Seed disinfection ratio (%) (rice brown spot fungus): 100%

Q: Which results are given for `CCOC(=O)c1sc(C(=O)OCC)c(OC(=O)c2cccs2)c1OC(=O)c1cccs1` [Compound No. 229, 3,4-Di-(2'-thenoyloxy)-2,5-dicarbethoxythiophene]?
A: Degree of phytotoxicity ([9]; Table 7, spray liquid 500 ppm): 0; Control value [10]: 100%

Q: Which Control value [6] does the source give for `COC(=O)c1sc(C(=O)c2ccccc2)c(O)c1O` [Compound No. 246, 3,4-Dihydroxy-2-carbomethoxy-5-benzoylthiophene] here?
A: The Control value was 100%.

Q: And the Degree of phytotoxicity [7, 11]?
A: The Degree of phytotoxicity was 0.

Q: Which results are given for `CCOC(=O)c1sc(C(=O)c2ccccc2)c(O)c1O` [Compound No. 247, 3,4-Dihydroxy-2-carbethoxy-5-benzoylthiophene]?
A: Control value [6]: 100%; Degree of phytotoxicity [7, 11]: 0

Q: Which Control value [6] does the source give for `CCOC(=O)c1sc(C(=O)c2ccccc2)c(OC(C)=O)c1OC(C)=O` [Compound No. 249, 3,4-Diacetoxy-2-carbethoxy-5-benzoylthiophene] here?
A: The Control value was 100%.

Q: What about the Degree of phytotoxicity [7, 11] of the same compound?
A: Its Degree of phytotoxicity is 0.

Q: How did the Control value [6] turn out when `CCOC(=O)c1sc(C(=O)c2ccccc2)c(OC(=O)OC)c1OC(=O)OC` [Compound No. 252, 3,4-Di(methoxycarbonyloxy)-2-carbethoxy-5-benzoylthiophene] was run?
A: The Control value was 90%.

Q: What about the Degree of phytotoxicity [7, 11] of the same compound?
A: The Degree of phytotoxicity was 0.

Q: How did the Control value [6] turn out when `CCOC(=O)c1sc(C(=O)c2ccc(C)cc2)c(OC(=O)N(C)C)c1OC(=O)N(C)C` [Compound No. 287, 3,4-Di(N,N-dimethylcarbamoyloxy)-2-carbethoxy-5-(p-methylbenzoyl)-thiophene] was run?
A: The Control value was 90%.

Q: What about the Degree of phytotoxicity [7, 11] of the same compound?
A: Its Degree of phytotoxicity is 0.

Q: How did the Control value (Pellicularia sasakii) turn out when `CCOCCC(=O)Oc1c(C(=O)OCC)sc(C(=O)OCC)c1OC(=O)CCOCC` [Compound No. 295, 3,4-Di(2'-ethoxyethylcarbonyloxy)-2,5-dicarbethoxy-thiophene] was run?
A: Its Control value is 94%.

Q: What about the Degree of phytotoxicity (paddy rice) of the same compound?
A: The Degree of phytotoxicity was 0.

Q: For `CN(C)C(=S)SSC(=S)N(C)C` [TMTD, reference compound], which Degree of phytotoxicity [4] is on record?
A: The Degree of phytotoxicity was 0.

Q: What about the “Seed disinfection ratio (%)” value (rice brown spot fungus) of the same compound?
A: Its value is 51%.

Q: Which Degree of phytotoxicity ([9]; concentration of spray liquid 500 ppm) does the source give for `N#Cc1c(Cl)c(Cl)c(Cl)c(C#N)c1Cl` [TPN, reference compound] here?
A: The Degree of phytotoxicity was 0.

Q: And the “Control value (%)” value ([10]; concentration of spray liquid 500 ppm, five days after the inoculation)?
A: The value was 100%.

Q: With `COC(=O)NC(=S)Nc1ccccc1NC(=S)NC(=O)OC` [Thiophanate-methyl, reference compound] as the compound, how does the Control value [6] read?
A: The Control value was 70%.

Q: For `OCCN1CN(CCO)CN(CCO)C1` [Triazine, reference compound], which Control value [5] is on record?
A: The Control value was 90%.

Q: And the Degree of phytotoxicity [8, 12]?
A: Its Degree of phytotoxicity is 0.

Q: Which results are given for `CNC(=O)Oc1c(C#N)sc(C(=O)OC)c1OC(=O)NC` [compound 207]?
A: Degree of phytotoxicity ([9]; Table 7, spray liquid 500 ppm): 0; Degree of phytotoxicity [4]: 0; Control value (%) [1]: 92%; Control value [10]: 100%; Seed disinfection ratio (%) (rice brown spot fungus): 96%; Degree of phytotoxicity [2]: 0

Q: What does the source list for `CCOC(=O)c1sc(C#N)c(O)c1O` [compound 211]?
A: Degree of phytotoxicity ([9]; Table 7, spray liquid 500 ppm): 0; Control value [10]: 100%

Q: How did the Degree of phytotoxicity ([9]; Table 7, spray liquid 500 ppm) turn out when `CCOC(=O)c1sc(C#N)c(OC(=O)NC)c1OC(=O)NC` [compound 213] was run?
A: The Degree of phytotoxicity was 0.

Q: And the Degree of phytotoxicity [4]?
A: Its Degree of phytotoxicity is 0.

Q: What about the “Control value (%)” value [1] of the same compound?
A: Its value is 92%.

Q: And the Control value [10]?
A: Its Control value is 100%.

Q: What about the “Seed disinfection ratio (%)” value (rice brown spot fungus) of the same compound?
A: Its value is 94%.

Q: What about the Degree of phytotoxicity [2] of the same compound?
A: The Degree of phytotoxicity was 0.
